From patent US20160264935A1, “TRANSFORMED HUMAN PLURIPOTENT STEM CELLS AND ASSOCIATED METHODS” (McMaster University, priority 2009, published 2016)
Counter-ions that a name gives are not always drawn.

Tests used:
[1] = system: human mobilized peripheral blood; assay: Cell viability by trypan blue exclusion; format: cell-based; details: 0.1-10 μM, 5 days
Experimental: FIGS. 1D-E: Measurements of cell viability using trypan blue on human mobilized peripheral blood treated with mefloquine or thioridazine for 5 days. […] In order to further investigate the compounds identified by the screen, mefloquine and thioridazine were used to treat human mobilized peripheral blood for 5 days. Cell viability was measured using trypan blue exclusion.

[2] = system: human iPS cells; assay: Frequency of Oct4+ cells by flow cytometry; format: cell-based; details: 7 days of treatment; compared to MEFCM and DMSO
Text: FIG. A: identification of inducers of stem cell differentiation. 300 compounds were screened to detect the fluorescence emitted from the Oct4-GFP reporter expressed in transformed cells and normalized to the relative cell nuclear number as defined by Hoechst staining. GFP/Hoechst ratios below zero, the threshold defined by BMP4 (a known stem cell differentiator), are considered potent inducers of stem cells differentiation. FIGS. B-C: the frequency of Oct4+ human iPS cells measured using flow cytometry following 7 days of treatment with Mefloquine (MEFLO) or thioridazine (THIO) compared to culture media (MEFCM) and culture media supplemented with DMSO (DMSO). […] FIGS. 1D-E: Measurements of cell viability using trypan blue on human mobilized peripheral blood treated with mefloquine or thioridazine for 5 days. […] Mefloquine (MEFLO) and thioridazine (THIO) were then tested in human iPS cells. Following 7 days of treatment, the frequency of Oct4+ cells were measured using flow cytometry and compared to culture media (MEFCM) and culture media supplemented with DMSO (DMSO) as a vehicle to augment compound solubility.

[3] = system: t-hPSCs that contain an Oct4-GFP reporter gene; assay: Screen of 300 compounds for inducers of stem cell differentiation (Oct4-GFP/Hoechst ratio); format: cell-based, human; details: 72 hours after exposure; fluorescence plate reader
Text: FIG. A: identification of inducers of stem cell differentiation. 300 compounds were screened to detect the fluorescence emitted from the Oct4-GFP reporter expressed in transformed cells and normalized to the relative cell nuclear number as defined by Hoechst staining. GFP/Hoechst ratios below zero, the threshold defined by BMP4 (a known stem cell differentiator), are considered potent inducers of stem cells differentiation. FIGS. B-C: the frequency of Oct4+ human iPS cells measured using flow cytometry following 7 days of treatment with Mefloquine (MEFLO) or thioridazine (THIO) compared to culture media (MEFCM) and culture media supplemented with DMSO (DMSO). […] FIGS. 1D-E: Measurements of cell viability using trypan blue on human mobilized peripheral blood treated with mefloquine or thioridazine for 5 days. […]
Plates containing the cells were analyzed 72 hours after exposure to the compounds using a fluorescence plate reader capable of detecting the fluorescence emitted from the Oct4-GFP reporter expressed in transformed cells and normalized to the relative cell nuclear number as defined by Hoechst staining. […]

[4] = system: transformed stem cells (Oct4-GFP); assay: High Content Screening of Oct4-GFP expression (ArrayScan HCS reader); format: cell-based, human
Experimental: At day 2 and 3 BMP4 was added to each of the treated wells at various concentrations. On day 4 microtiter plates containing treated transformed stem cells were imaged using the cellomics ArrayScan HCS reader (Thermofisher). Oct4-GFP expression was shown in green while cell nuclei are shown in blue (Hoescht 33342). A) No BMP untreated control.
Cells were grown as described in FIG. 9 with the exception of the addition of BMP4 which was replaced by DMSO at multiple concentrations as described in the Figure legends. DMSO is a chemical compound used in drug studies as a solvent which is known to induce stem cell differentiation. On day 5, after cell seeding and culture, microtiter plates were imaged using the ArrayScan HCS reader (Thermofisher). […] D) Cell numbers were quantified based on the automated detection and segregation of cells labelled by the nuclear dye Hoescht. […] All images were analyzed using the Cellomics software.
Transformed stem cells were seeded as single cells and grown in culture using standard stem cell culture conditions for 4 days. […] On day 4 microtiter plates containing treated transformed stem cells were imaged using the cellomics ArrayScan HCS reader (Thermofisher). […]
Due to image analysis limitations similar data could not be obtained when normal cells were used for the assays. […] All images were analyzed using the Cellomics software.

[5] = system: transformed pluripotent stem cells that contain an Oct4-GFP reporter; assay: Microscope imaging of Oct4 antibody staining and GFP after BMP-4 treatment; format: cell-based, human; details: increased amounts of BMP-4, 4 days; microscope images
Experimental: Transformed pluripotent stem cells that contain an Oct4-GFP reporter were plated, cultured, treated with BMP-4 and fixed as described in FIG. 7. Cells were permeabilized with 0.1% TritonX-100 and stained with Oct4 antibody conjugated with Alexa 647. The cell nuclei were stained with Hoechst 33342. Images were collected using 10× objective on Olympus microscope, and analysed using Image-Pro Plus software.
Cells were permeabilized with 0.1% TritonX-100 and stained with Oct4 antibody conjugated with Alexa 647. The cell nuclei were stained with Hoechst 33342. Images were collected using 10× objective on Olympus microscope, and analysed using Image-Pro Plus software.

[6] = system: transformed pluripotent stem cells with EOS Oct4-GFP reporter; assay: High throughput plate reader screen for loss of pluripotency (Oct4-Alexa 647 antibody and GFP); format: cell-based, human; details: 1, 10, 100 ng/mL BMP4 for 4 days, n=3
Experimental: Transformed pluripotent stem cells were passaged as single cells using Trypsin and seeded at 1000 cells per well into 96 well optical imaging plates coated with Matrigel ® containing 100 ul mouse embryonic fibroblast conditioned media (MEF-CM). Plates were incubated at 37 degrees for 24 Hr before treatment with bone morphogenic protein 4 (BMP4) commenced. Cells were treated with either 1 ng/mL, 10 ng/mL, 100 ng/mL, or 0 ng/mL BMP4 for 4 days (n=3). After 4 days cells were fixed with 2% paraformaldehyde and stained with Oct4-Alexa 647 antibody. Cells were loaded into a plate reader and measured at excitation emission pairs of 650/665 and 488/520 nm to measure Oct4-Alexa 647 antibody (top graph) and GFP (bottom graph) respectively. Pluripotency (measured by the loss of OCT4 and GFP expression) decreased with the increase in differentiation inducing compound BMP4. Similar results were obtained when other compounds were tested. […]
The versatility of transformed human pluripotent stem cells is illustrated by the multiple types of assays that it enables. […] Cells were loaded into a plate reader and measured at excitation emission pairs of 650/665 and 488/520 nm to measure Oct4-Alexa 647 antibody (FIG. 7 top graph) and GFP (FIG. 7 bottom graph) respectively. Pluripotency (measured by the loss of OCT4 and GFP expression) decreased with the increase in differentiation inducing compound BMP4. […]

Molecule | Cell viability relative to control samples (0 μM) [1] | Frequency of Oct4+ cells [2] | Induction of t-hPSC differentiation (GFP/Hoechst ratio below zero, the threshold defined by BMP4) [3] | also measured
CSc1ccc2c(c1)N(CCC1CCCCN1C)c1ccccc1S2 (centres unmarked) [Thioridazine HCl] | did not reduce cell viability | decrease | potent inducers of t-hPSCs differentiation | –
OC(c1cc(C(F)(F)F)nc2c(C(F)(F)F)cccc12)C1CCCCN1 (centres unmarked) [Mefloquine HCl] | did not reduce cell viability | decrease | potent inducers of t-hPSCs differentiation | –
C[S+](C)[O-] [DMSO] | – | – | – | Oct4-GFP expression ([4]; DMSO 0%, 0.01%, 2% (v/v) for 4 consecutive days, imaged day 5): decreasing expression levels of GFP
bone morphogenic protein 4 [BMP4] | – | – | – | GFP fluorescence (Oct4-GFP reporter) [5]: decreased GFP fluorescence; Oct-4 antibody staining [5]: decreased Oct-4 antibody staining; Oct4-GFP expression ([4]; BMP4 added at day 2 and 3, imaged day 4): significant loss of GFP expression; Pluripotency (measured by the loss of OCT4 and GFP expression) [6]: decreased
